According to patent US4871758A, “Pharmacologically active cholinergic compositions, and methods for making same and use thereof in treating disease” (priority 1987, dated 1989):
Counter-ions that a name gives are not always drawn.

Experiments:
[1] = test system: guinea-pig trachea muscle; test: guinea-pig trachea contraction; details: muscles have essentially M2 receptors
[2] = test system: M1 receptors on the intramural inhibitory neurons; test: lower esophageal sphincter pressure assay in anaesthetized opossum; type: in vivo
Experimental: The compound (I) obtained according to Example 2 was tested by assay on the lower esophageal sphincter of an opossum anaesthetized with sodium phenobarbitol. In carrying out the assay, the lower esophageal sphincter located between the esophagus and the stomach remains in a state of tonic contraction; therefore, a pressure sensing (manometric) catheter introduced from the animal's mouth into the lumen monitors lower esophageal sphincter pressures by registering a sustained high pressure zone, due to the lumen's myogenic contraction which is independent of neural or hormonal influences. Neural activity and hormones can increase or decrease the sphincter pressure and both excitatory and inhibitory influences can be readily detected.
The intraluminal pressures from the lower esophageal sphincter, esophageal body and the stomach are continuously monitored using a low compliance, waterfilled and continuously perfused catheter anchored in the lower esophageal sphincter so that artifacts due to axial motion can be minimized. See Goyal et al., Gastroenterology, 71, 62-7 (1976). All animals receive bilateral cervical vagotomy to eliminate vagally mediated changes in the sphincter pressure. Nerves to the sphincter are stimulated electrically by electrodes which are either applied to the distal end of the cut vagus nerve or applied intramurally in the sphincter. See Goyal et al., supra, and Rattan et al., Am. J. Physiol., 234, E272-E276 (1978). Reflex relaxation of the sphincter is produced by distension of the esophagus with an intraluminal balloon. Drugs are administered in the arterial supply of the lower esophageal sphincter. This is done by opening the abdominal cavity and cannulating the artery that leads to the lower esophageal sphincter. The compound is injected into the blood supply of the lower esophageal sphincter and its effect therein is determined. The animal's vital signs are monitored and blood pressure is maintained with intravenous infusion of saline. Some drugs are administered intravenously.
In summary, the above-described model permits identification of muscarinic agonists and antagonists in a physiological system.

[3] = lower esophageal sphincter, anaesthetized opossum

- M1 receptor selectivity ([2]; M1 versus M2, from sphincter and trachea results): highly selective for M1 receptors
- blockade of activity by antagonist ([2]; atropine): blocked by atropine
- agonist type ([2]; inferred from 80% of full agonist activity): partial agonist
- muscarinic receptor subtype effects ([2]; lower esophageal sphincter, anaesthetized opossum, injected into arterial supply of the sphincter): only M1 effects
SMILES: Cc1ccc(-c2cncn2C)o1 [Compound I, 1-(N-methyl)-5-(5'-methyl-2'-furyl)imidazole, Hydrochloride]
- potency in contracting the trachea muscle [1]: virtually no potency
- dosage giving peak effect [2, 3]: 10^-6 mole/kg
- threshold dosage [2, 3]: 10^-8 mole/kg
